The text below walks through data of PMC11009625, “Antibiotic class with potent in vivo activity targeting lipopolysaccharide synthesis in Gram-negative bacteria” (Proceedings of the National Academy of Sciences of the …, 2024).

The assay has as its system efflux-defective E. coli. In words: MIC in phenotypic screen, tolC-inactivated E. coli. The class given is cell-based. Conditions: Escherichia coli, read-out: MIC against efflux-defective E. coli. The text has this: In a search for new drug targets and starting points for antibiotic discovery, we initiated a series of phenotypic screens, based on publicly available chemical libraries and information gathered from the literature, focusing on compounds for which there was some evidence of Gram-negative antibacterial activity. In our initial screens, we evaluated activity against tolC-inactivated mutants of E. coli. The TolC protein is the outer membrane channel protein that is required for activity of several of the most important efflux pumps in E. coli, and inactivation of TolC essentially abolishes efflux pump activity ([27]). […] We successfully isolated resistant mutants against this compound. […] We resynthesized the AZ1 compound and confirmed the involvement of LpxH by WGS of selected resistant clones (SI Appendix, Table S1) ([24]–[26]). Both our own, and previously published mutations, map to the lipid X (enzymatic reaction product) binding site of LpxH (SI Appendix, Table S1 and Fig. S1A) ([23]). […]
Minimum inhibitory concentration (MIC) values were determined according to the Clinical Laboratory Standards Institute guidelines. Frequency of resistance was determined by plating ~5 × 10^8 bacterial cells on agar-solidified media plates containing test compound at concentrations corresponding to four times the measured solid-media MIC of the strains. […]

In general, MIC refers to the least concentration at which growth counts as inhibited.

Molecules are shown by their SMILES. In brackets after ≈: the same amount, converted by molar mass.

As to `CN(c1ccccc1C(=O)Nc1ccc(S(=O)(=O)N2CCCCC2)cc1)S(C)(=O)=O` [JEDI-852], the MIC was 4 to 8 µg/mL (≈ 8.86 to 17.7 µM).
